Values after ≈ are worked out from the molar mass of the structure shown.
Experiments:
[1] = test system: Enterococcus sp.; experiment: in vitro antibacterial evaluation, MIC by broth dilution; format: cell-based; conditions: broth dilution, 18 hours at 35° C.
Method in brief: (§1)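 Inoculum 5×10^5 CFU/mL; concentrations 64 to 0.06 μg/mL; MIC defined as lowest inhibitory level. Conducted by broth dilution under NCCLS guidelines.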

[2] = test system: Streptococcus sp.; experiment: as above; format: cell-based; conditions: broth dilution, 18 hours at 35° C.
Method in brief: as §1

[3] = test system: Escherichia coli; experiment: as above; format: cell-based; conditions: 18 hours at 35° C.
Method in brief: as §1

[4] = test system: Staphylococcus sp.; experiment: as above; format: cell-based; conditions: broth dilution, 18 hours at 35° C.
Method in brief: as §1

[5] = test system: Staphylococcus aureus-SMITH (GC 4543); experiment: acute lethal infection in mice; format: in vivo; conditions: acute lethal infection, female CD-1 mice, intraperitoneal challenge, intravenous 30 min. after infection, 7 day survival
Method in brief: (§2)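 Survival at 7 days, pooled from three independent tests, yields ED50 values. Treatment is intravenous, 30 min after ip infection of female CD-1 mice, using an inoculum lethal to untreated controls within 24-48 hr.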

[6] = test system: Enterococcus faecalis (GC 6189); experiment: acute lethal infection in mice; format: in vivo; conditions: female CD-1 mice, intraperitoneal challenge, intravenous 30 min. after infection, 7 day survival
Method in brief: as §2

For `CC(c1ccccc1)C1NC(=O)CNC(=O)C(CO)NC(=O)C(C(O)C2CNC(=N)N2C2OC(CO)C(O)C(O)C2O)NC(=O)C(C(O)C2CNC(=N)N2)NC(=O)C(Cc2ccc(OC3OC(CO)C(OC4OC5COC(Cc6ccc(F)cc6)OC5C(O)C4O)C(O)C3O)cc2)NC1=O` (stereo not drawn) [Example 121, Cyclo[glycyl-β-methylphenylalanyl-O-[4-O-[4,6-O-(4-fluorophenethylidene)hexopyranosyl]-hexopyranosyl]tyrosyl-3-(2-iminoimidazolidin-4-yl)seryl-3-(3-hexopyranosyl-2-iminoimidazolidin-4-yl)serylseryl]], the “MIC Enterococcus avium (GC 4558)” value ([1]; Enterococcus avium (GC 4558)) was 4 µg/mL (≈ 2.83 µM), the “MIC Enterococcus faecalis (ATCC 29212)” value ([1]; Enterococcus faecalis (ATCC 29212)) was 2 µg/mL (≈ 1.41 µM) and the “MIC Enterococcus faecalis (GC 2242)” value ([1]; Enterococcus faecalis (GC 2242)) was 2 µg/mL (≈ 1.41 µM). The “MIC Enterococcus faecalis (GC 2691)” value ([1]; Enterococcus faecalis (GC 2691)) was 4 µg/mL (≈ 2.83 µM), the “MIC Enterococcus faecalis (GC 3059)” value ([1]; Enterococcus faecalis (GC 3059)) was 2 µg/mL (≈ 1.41 µM) and the “MIC Enterococcus faecalis (GC 4552)” value ([1]; Enterococcus faecalis (GC 4552)) was 2 µg/mL (≈ 1.41 µM). The “MIC Enterococcus faecalis (GC 4553)” value ([1]; Enterococcus faecalis (GC 4553)) was 4 µg/mL (≈ 2.83 µM), the “MIC Enterococcus faecalis (GC 4554)” value ([1]; Enterococcus faecalis (GC 4554)) was 2 µg/mL (≈ 1.41 µM) and the “MIC Enterococcus faecalis (GC 6189)” value ([1]; Enterococcus faecalis (GC 6189)) was 2 µg/mL (≈ 1.41 µM). For the same molecule, the “MIC Enterococcus faecium (GC 2243)” value ([1]; Enterococcus faecium (GC 2243)) was 2 µg/mL (≈ 1.41 µM), the “MIC Enterococcus faecium (GC 4556)” value ([1]; Enterococcus faecium (GC 4556)) was 2 µg/mL (≈ 1.41 µM) and the “MIC Enterococcus faecium (GC 4557)” value ([1]; Enterococcus faecium (GC 4557)) was 2 µg/mL (≈ 1.41 µM). For the same molecule, the “MIC Enterococcus faecalis (ATCC 29212)” value ([1]; strain ATCC 29212) was 2 µg/mL (≈ 1.41 µM), the “MIC Enterococcus faecalis (GC 2242)” value ([1]; strain GC 2242) was 2 µg/mL (≈ 1.41 µM) and the “MIC Enterococcus faecium (GC 2243)” value ([1]; strain GC 2243) was 2 µg/mL (≈ 1.41 µM). The “MIC Enterococcus faecalis (GC 2691)” value ([1]; strain GC 2691) was 4 µg/mL (≈ 2.83 µM), the “MIC Enterococcus faecalis (GC 3059)” value ([1]; strain GC 3059) was 2 µg/mL (≈ 1.41 µM) and the “MIC Enterococcus faecalis (GC 4552)” value ([1]; strain GC 4552) was 2 µg/mL (≈ 1.41 µM). The “MIC Enterococcus faecalis (GC 4553)” value ([1]; strain GC 4553) was 4 µg/mL (≈ 2.83 µM), the “MIC Enterococcus faecalis (GC 4554)” value ([1]; strain GC 4554) was 2 µg/mL (≈ 1.41 µM) and the “MIC Enterococcus faecium (GC 4556)” value ([1]; strain GC 4556) was 2 µg/mL (≈ 1.41 µM). For the same molecule, the “MIC Enterococcus faecium (GC 4557)” value ([1]; strain GC 4557) was 2 µg/mL (≈ 1.41 µM), the “MIC Enterococcus avium (GC 4558)” value ([1]; strain GC 4558) was 4 µg/mL (≈ 2.83 µM) and the “MIC Enterococcus faecalis (GC 6189)” value ([1]; strain GC 6189) was 2 µg/mL (≈ 1.41 µM). For the same molecule, the “MIC Streptococcus agalactiae (GC 4564)” value ([2]; Streptococcus agalactiae (GC 4564)) was 0.25 µg/mL (≈ 0.177 µM), the “MIC Streptococcus pneumoniae (ATCC 6301)” value ([2]; Streptococcus pneumoniae (ATCC 6301)) was less than 0.06 µg/mL and the “MIC Streptococcus pneumoniae (GC 1894)” value ([2]; Streptococcus pneumoniae (GC 1894)) was less than 0.06 µg/mL. For the same molecule, the “MIC Streptococcus pneumoniae (GC 4565)” value ([2]; Streptococcus pneumoniae (GC 4565)) was less than 0.06 µg/mL, the “MIC Streptococcus pyogenes (GC 4563)” value ([2]; Streptococcus pyogenes (GC 4563)) was 0.25 µg/mL (≈ 0.177 µM) and the “MIC Streptococcus pneumoniae (ATCC 6301)” value ([2]; strain ATCC 6301) was less than 0.06 µg/mL. The “MIC Streptococcus pneumoniae (GC 1894)” value ([2]; strain GC 1894) was less than 0.06 µg/mL, the “MIC Streptococcus pyogenes (GC 4563)” value ([2]; strain GC 4563) was 0.25 µg/mL (≈ 0.177 µM) and the “MIC Streptococcus agalactiae (GC 4564)” value ([2]; strain GC 4564) was 0.25 µg/mL (≈ 0.177 µM). The “MIC Streptococcus pneumoniae (GC 4565)” value ([2]; strain GC 4565) was less than 0.06 µg/mL, the “MIC Escherichia coli (ATCC 25922)” value ([3]; strain ATCC 25922) was 32 µg/mL (≈ 22.6 µM) and the “MIC Escherichia coli (GC 4559)” value ([3]; strain GC 4559) was 32 µg/mL (≈ 22.6 µM). The “MIC Escherichia coli (GC 4560)” value ([3]; strain GC 4560) was 1 µg/mL (≈ 0.707 µM), the “MIC Coagulase Negative Staphylococcus (GC 4547)” value [4] was 1 µg/mL (≈ 0.707 µM) and the “MIC Coagulase Negative Staphylococcus (GC 4548)” value [4] was 0.5 µg/mL (≈ 0.353 µM). The “MIC Coagulase Negative Staphylococcus (GC 4549)” value [4] was 0.5 µg/mL (≈ 0.353 µM), the “MIC Coagulase Negative Staphylococcus (GC 4551)” value [4] was 2 µg/mL (≈ 1.41 µM) and the “MIC Coagulase Negative Staphylococcus (GC 6257)” value [4] was 1 µg/mL (≈ 0.707 µM). For the same molecule, the “MIC Staphylococcus aureus (ATCC 29213)” value [4] was 1 µg/mL (≈ 0.707 µM), the “MIC Staphylococcus aureus (GC 1131)” value [4] was 2 µg/mL (≈ 1.41 µM) and the “MIC Staphylococcus aureus (GC 3051)” value [4] was 1 µg/mL (≈ 0.707 µM). For the same molecule, the “MIC Staphylococcus aureus (GC 3053)” value [4] was 1 µg/mL (≈ 0.707 µM), the “MIC Staphylococcus aureus (GC 4541)” value [4] was 1 µg/mL (≈ 0.707 µM) and the “MIC Staphylococcus aureus (GC 4542)” value [4] was 1 µg/mL (≈ 0.707 µM). The “MIC Staphylococcus aureus (GC 4544)” value [4] was 2 µg/mL (≈ 1.41 µM), the “MIC Staphylococcus aureus (GC 4545)” value [4] was 2 µg/mL (≈ 1.41 µM) and the “MIC Staphylococcus aureus-SMITH (GC 4543)” value [4] was 1 µg/mL (≈ 0.707 µM). For the same molecule, the “MIC Staphylococcus haemolyticus (GC 4546)” value [4] was 1 µg/mL (≈ 0.707 µM), the “MIC Staphylococcus aureus (GC 1131)” value ([4]; inoculum 5×10^5 CFU/mL, strain GC 1131) was 2 µg/mL (≈ 1.41 µM) and the “MIC Staphylococcus aureus (ATCC 29213)” value ([4]; strain ATCC 29213) was 1 µg/mL (≈ 0.707 µM). The “MIC Staphylococcus aureus (GC 3051)” value ([4]; strain GC 3051) was 1 µg/mL (≈ 0.707 µM), the “MIC Staphylococcus aureus (GC 3053)” value ([4]; strain GC 3053) was 1 µg/mL (≈ 0.707 µM) and the “MIC Staphylococcus aureus (GC 4541)” value ([4]; strain GC 4541) was 1 µg/mL (≈ 0.707 µM). For the same molecule, the “MIC Staphylococcus aureus (GC 4542)” value ([4]; strain GC 4542) was 1 µg/mL (≈ 0.707 µM), the “MIC Staphylococcus aureus (GC 4544)” value ([4]; strain GC 4544) was 2 µg/mL (≈ 1.41 µM) and the “MIC Staphylococcus aureus (GC 4545)” value ([4]; strain GC 4545) was 2 µg/mL (≈ 1.41 µM). For the same molecule, the “MIC Staphylococcus haemolyticus (GC 4546)” value ([4]; strain GC 4546) was 1 µg/mL (≈ 0.707 µM), the “MIC Coagulase Negative Staphylococcus (GC 4547)” value ([4]; strain GC 4547) was 1 µg/mL (≈ 0.707 µM) and the “MIC Coagulase Negative Staphylococcus (GC 4548)” value ([4]; strain GC 4548) was 0.5 µg/mL (≈ 0.353 µM). For the same molecule, the “MIC Coagulase Negative Staphylococcus (GC 4549)” value ([4]; strain GC 4549) was 0.5 µg/mL (≈ 0.353 µM), the “MIC Coagulase Negative Staphylococcus (GC 4551)” value ([4]; strain GC 4551) was 2 µg/mL (≈ 1.41 µM) and the “MIC Coagulase Negative Staphylococcus (GC 6257)” value ([4]; strain GC 6257) was 1 µg/mL (≈ 0.707 µM). For the same molecule, the “MIC Staphylococcus aureus-SMITH (GC 4543)” value ([4]; strain SMITH GC 4543) was 1 µg/mL (≈ 0.707 µM), the median effective dose (ED50), Staphylococcus aureus-SMITH (GC 4543) [5] was 0.32 mg/kg and the median effective dose (ED50), Enterococcus faecalis (GC 6189) [6] was 0.5 mg/kg.
